Measured values taken from ChEMBL document CHEMBL5518188, “Discovery of 4-amino-1,6-dihydro-7H-pyrrolo[2,3-d]pyridazin-7-one derivatives as potential receptor-interacting serine/threonine-protein kinase 1 (RIPK1) inhibitors” (Eur J Med Chem, 2024).
Active and inactive are the calls of the source. The rule behind the calls is not given here.

Assays:
[1] = molecular target: T1, Receptor-interacting serine/threonine-protein kinase 1 (Homo sapiens, UniProt Q13546); test: Binding affinity to RIPK1 (unknown origin) assessed as dissociation constant
T1 sequence (Q13546 whole entry): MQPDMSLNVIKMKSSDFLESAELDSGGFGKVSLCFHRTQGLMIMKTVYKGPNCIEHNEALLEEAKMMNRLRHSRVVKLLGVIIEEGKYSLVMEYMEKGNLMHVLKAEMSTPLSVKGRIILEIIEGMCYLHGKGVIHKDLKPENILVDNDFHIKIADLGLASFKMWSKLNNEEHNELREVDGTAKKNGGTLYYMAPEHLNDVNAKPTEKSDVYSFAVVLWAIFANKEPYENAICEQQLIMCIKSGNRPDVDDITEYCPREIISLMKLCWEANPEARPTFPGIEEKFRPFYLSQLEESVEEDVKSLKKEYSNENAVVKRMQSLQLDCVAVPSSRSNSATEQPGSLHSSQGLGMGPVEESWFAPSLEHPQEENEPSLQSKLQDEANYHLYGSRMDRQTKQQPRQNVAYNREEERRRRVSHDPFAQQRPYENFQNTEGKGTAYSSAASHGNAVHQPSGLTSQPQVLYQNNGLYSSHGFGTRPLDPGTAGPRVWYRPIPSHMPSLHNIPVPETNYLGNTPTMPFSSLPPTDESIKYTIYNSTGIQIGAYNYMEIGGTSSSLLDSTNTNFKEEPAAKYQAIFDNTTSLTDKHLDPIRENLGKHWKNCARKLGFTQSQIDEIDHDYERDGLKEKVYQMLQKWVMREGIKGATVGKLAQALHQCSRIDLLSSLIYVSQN

[2] = Cmax in BALB/c mouse at 10 mg/kg, po; assay type: ADME, organism-based; details: in vivo
[3] = Tmax in BALB/c mouse at 10 mg/kg, po; assay type: ADME, organism-based; details: in vivo
[4] = Cmax in BALB/c mouse at 10 mg/kg, iv; assay type: ADME, organism-based; details: in vivo
[5] = Half life in BALB/c mouse at 10 mg/kg, iv; assay type: ADME, organism-based; details: in vivo
[6] = molecular target: Vascular endothelial growth factor receptor 2 (Homo sapiens) (UniProt P35968); test: Inhibition of KDR (unknown origin)
Vascular endothelial growth factor receptor 2 (Homo sapiens), sequence (P35968 whole entry): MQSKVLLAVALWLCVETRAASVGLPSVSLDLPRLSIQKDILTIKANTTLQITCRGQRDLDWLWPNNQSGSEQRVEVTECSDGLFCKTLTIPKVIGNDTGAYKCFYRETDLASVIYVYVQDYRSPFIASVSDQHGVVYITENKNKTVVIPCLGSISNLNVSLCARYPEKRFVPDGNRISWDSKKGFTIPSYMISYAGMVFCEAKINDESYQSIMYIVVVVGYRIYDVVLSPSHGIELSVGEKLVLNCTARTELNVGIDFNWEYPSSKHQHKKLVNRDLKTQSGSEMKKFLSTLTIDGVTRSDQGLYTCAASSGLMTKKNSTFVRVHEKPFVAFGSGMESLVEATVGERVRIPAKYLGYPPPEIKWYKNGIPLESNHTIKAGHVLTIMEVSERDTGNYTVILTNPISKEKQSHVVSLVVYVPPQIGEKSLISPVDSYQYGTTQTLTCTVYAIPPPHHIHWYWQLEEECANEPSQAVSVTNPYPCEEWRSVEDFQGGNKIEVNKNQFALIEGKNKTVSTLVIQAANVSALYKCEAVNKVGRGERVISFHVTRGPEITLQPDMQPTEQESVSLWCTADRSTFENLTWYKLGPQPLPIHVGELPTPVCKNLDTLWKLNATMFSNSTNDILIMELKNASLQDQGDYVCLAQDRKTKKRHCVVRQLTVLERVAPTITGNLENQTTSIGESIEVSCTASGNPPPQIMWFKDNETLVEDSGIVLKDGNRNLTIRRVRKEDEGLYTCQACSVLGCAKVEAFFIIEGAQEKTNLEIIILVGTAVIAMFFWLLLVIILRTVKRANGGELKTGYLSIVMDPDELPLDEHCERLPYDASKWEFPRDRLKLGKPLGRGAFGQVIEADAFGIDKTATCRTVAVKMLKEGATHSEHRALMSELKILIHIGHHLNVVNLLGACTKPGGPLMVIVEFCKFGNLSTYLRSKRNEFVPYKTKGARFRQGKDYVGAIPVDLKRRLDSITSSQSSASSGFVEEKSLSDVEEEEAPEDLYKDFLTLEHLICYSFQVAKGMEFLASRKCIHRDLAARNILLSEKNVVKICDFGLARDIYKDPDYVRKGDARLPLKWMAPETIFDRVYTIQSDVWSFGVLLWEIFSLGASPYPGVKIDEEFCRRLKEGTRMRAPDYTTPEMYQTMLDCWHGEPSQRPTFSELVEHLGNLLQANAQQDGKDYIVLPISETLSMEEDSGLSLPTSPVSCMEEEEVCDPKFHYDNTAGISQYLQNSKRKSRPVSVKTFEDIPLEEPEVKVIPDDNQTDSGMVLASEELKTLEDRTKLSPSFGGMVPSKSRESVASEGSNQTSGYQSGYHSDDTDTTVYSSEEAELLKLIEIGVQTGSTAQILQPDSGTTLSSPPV

[7] = Apparent volume of distribution in BALB/c mouse at 10 mg/kg, iv; assay type: ADME, organism-based; details: in vivo, read-out: Vz
[8] = molecular target: T2, Discoidin domain-containing receptor 2 (Homo sapiens) (UniProt Q16832); test: Inhibition of DDR2 (unknown origin)
T2 sequence (whole entry): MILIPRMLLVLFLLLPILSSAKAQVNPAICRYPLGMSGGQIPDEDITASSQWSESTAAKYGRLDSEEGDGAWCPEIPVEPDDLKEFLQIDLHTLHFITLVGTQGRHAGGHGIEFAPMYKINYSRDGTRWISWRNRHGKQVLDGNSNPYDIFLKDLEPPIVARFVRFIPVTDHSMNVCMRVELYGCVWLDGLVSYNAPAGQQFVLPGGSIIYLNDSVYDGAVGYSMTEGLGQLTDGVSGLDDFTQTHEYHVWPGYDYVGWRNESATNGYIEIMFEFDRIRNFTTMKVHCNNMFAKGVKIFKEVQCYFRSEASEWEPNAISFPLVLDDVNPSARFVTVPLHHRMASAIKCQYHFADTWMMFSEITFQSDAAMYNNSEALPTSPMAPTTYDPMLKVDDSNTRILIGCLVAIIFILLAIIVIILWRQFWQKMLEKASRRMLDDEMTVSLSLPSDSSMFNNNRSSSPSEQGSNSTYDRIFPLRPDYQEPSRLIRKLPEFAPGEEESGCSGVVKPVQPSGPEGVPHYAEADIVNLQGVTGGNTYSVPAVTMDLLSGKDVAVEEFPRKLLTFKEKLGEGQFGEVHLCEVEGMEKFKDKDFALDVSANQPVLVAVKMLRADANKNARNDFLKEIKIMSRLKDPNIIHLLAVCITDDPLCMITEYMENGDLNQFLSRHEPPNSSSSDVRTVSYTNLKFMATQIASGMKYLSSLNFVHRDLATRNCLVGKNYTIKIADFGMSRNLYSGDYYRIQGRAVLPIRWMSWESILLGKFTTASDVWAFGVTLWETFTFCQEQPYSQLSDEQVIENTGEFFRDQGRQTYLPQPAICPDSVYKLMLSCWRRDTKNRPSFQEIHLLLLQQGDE

HT-29 = test: Anti-necroptosis activity against TSZ-induced human HT-29 cells; assay type: functional, cell-based
[9] = molecular target: T1, Receptor-interacting serine/threonine-protein kinase 1; test: Inhibition of RIPK1 (unknown origin) in presence of ATP by kinaseProfiler assay
[10] = Half life in BALB/c mouse at 10 mg/kg, po; assay type: ADME, organism-based; details: BALB/c, in vivo
[11] = molecular target: T3, Mixed lineage kinase domain-like protein (Homo sapiens, UniProt Q8NB16); test: Binding affinity to MLKL (unknown origin) assessed as dissociation constant
T3 sequence (Q8NB16 whole entry): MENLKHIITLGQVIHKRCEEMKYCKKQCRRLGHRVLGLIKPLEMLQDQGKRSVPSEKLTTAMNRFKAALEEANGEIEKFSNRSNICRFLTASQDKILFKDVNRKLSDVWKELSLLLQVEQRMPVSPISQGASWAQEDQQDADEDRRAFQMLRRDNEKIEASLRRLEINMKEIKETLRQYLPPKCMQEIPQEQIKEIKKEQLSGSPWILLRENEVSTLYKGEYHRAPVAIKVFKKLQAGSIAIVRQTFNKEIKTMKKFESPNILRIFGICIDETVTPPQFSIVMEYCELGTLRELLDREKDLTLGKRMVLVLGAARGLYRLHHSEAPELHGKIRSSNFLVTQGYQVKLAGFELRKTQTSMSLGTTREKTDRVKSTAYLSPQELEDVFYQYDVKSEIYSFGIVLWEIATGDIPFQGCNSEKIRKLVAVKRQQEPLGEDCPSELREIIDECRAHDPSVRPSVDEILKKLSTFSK

[12] = molecular target: Receptor-interacting serine/threonine-protein kinase 3 (Homo sapiens, UniProt Q9Y572); test: Binding affinity to RIPK3 (unknown origin) assessed as dissociation constant
Receptor-interacting serine/threonine-protein kinase 3, sequence (Q9Y572 whole entry): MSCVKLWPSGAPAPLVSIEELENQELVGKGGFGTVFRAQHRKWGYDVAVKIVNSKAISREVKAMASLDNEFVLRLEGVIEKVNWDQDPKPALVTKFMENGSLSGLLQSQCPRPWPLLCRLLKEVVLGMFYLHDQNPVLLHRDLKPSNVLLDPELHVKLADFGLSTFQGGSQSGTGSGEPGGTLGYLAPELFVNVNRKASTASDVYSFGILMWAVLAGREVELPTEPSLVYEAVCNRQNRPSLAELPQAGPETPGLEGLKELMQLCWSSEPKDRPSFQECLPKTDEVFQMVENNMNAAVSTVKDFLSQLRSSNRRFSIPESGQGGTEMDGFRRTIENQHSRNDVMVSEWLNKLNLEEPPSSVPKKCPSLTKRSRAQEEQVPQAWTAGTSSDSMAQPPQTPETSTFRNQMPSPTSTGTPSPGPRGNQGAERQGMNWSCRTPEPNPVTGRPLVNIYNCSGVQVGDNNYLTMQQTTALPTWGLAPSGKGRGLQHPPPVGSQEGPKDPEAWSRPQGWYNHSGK

[13] = Oral bioavailability in BALB/c mouse at 10 mg/kg; assay type: ADME, organism-based; details: BALB/c, in vivo
U-937 = test: Anti-necroptosis activity against TSZ-induced human U-937 cells; assay type: functional, cell-based
[14] = molecular target: Angiopoietin-1 receptor (Homo sapiens) (UniProt Q02763); test: Inhibition of Tie2 (unknown origin)
Angiopoietin-1 receptor (Homo sapiens), sequence (Q02763 whole entry): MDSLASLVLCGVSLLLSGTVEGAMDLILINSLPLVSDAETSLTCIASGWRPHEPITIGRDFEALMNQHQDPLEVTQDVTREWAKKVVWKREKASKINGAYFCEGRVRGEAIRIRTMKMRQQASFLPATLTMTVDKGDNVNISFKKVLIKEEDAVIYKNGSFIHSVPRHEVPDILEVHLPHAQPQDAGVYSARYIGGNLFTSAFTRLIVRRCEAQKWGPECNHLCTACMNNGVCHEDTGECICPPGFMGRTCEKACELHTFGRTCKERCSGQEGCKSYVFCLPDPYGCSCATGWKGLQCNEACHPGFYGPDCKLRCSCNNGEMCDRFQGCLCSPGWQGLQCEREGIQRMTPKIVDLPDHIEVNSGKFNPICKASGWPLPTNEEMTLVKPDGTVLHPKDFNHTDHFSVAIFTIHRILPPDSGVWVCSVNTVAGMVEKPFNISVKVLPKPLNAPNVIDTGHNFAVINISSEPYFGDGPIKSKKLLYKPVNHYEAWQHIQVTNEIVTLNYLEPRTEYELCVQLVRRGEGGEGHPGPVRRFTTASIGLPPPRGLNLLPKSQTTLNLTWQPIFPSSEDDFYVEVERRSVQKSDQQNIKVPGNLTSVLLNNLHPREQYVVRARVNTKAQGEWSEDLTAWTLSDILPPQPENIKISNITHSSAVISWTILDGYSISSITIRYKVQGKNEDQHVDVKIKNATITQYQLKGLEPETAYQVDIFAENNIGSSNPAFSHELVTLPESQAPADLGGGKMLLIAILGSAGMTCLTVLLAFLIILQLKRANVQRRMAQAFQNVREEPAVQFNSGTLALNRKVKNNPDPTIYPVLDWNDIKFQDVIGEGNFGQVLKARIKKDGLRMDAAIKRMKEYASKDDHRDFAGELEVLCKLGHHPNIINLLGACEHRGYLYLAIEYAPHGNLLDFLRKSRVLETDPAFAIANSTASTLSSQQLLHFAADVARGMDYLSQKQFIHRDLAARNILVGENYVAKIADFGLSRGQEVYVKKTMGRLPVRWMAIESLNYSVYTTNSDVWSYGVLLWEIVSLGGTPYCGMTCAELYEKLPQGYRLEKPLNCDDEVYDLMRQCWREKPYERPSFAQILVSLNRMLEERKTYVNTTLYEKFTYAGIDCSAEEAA

[15] = molecular target: Eukaryotic translation initiation factor 2-alpha kinase 1 (Homo sapiens) (UniProt Q9BQI3); test: Inhibition of HRI (unknown origin)
Eukaryotic translation initiation factor 2-alpha kinase 1 (Homo sapiens), sequence (Q9BQI3 whole entry): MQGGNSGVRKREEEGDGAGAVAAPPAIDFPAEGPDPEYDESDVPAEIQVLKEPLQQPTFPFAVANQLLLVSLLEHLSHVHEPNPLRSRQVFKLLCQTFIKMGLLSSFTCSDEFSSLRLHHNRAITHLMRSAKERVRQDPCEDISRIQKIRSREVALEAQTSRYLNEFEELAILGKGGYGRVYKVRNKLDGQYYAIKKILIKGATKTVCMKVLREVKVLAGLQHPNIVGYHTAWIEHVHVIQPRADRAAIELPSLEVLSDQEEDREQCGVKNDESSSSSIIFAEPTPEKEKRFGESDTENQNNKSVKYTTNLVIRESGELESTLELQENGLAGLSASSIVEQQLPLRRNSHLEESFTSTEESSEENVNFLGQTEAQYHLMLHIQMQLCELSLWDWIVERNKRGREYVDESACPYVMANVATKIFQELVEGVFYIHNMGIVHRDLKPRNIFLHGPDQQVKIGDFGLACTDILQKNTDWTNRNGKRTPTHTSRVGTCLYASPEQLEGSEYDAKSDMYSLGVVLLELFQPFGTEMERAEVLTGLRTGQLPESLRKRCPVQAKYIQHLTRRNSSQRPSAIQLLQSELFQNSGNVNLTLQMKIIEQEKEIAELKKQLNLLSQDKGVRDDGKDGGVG

[16] = molecular target: T4, Receptor-interacting serine/threonine-protein kinase 1 (Homo sapiens) (UniProt Q13546); details: HT-29, dose 3.0 nM, time 6.0 hrs
T4 sequence (whole entry): T1 sequence (Q13546 whole entry)

[17] = molecular target: NT-3 growth factor receptor (Homo sapiens) (UniProt Q16288); test: Inhibition of TRKC (unknown origin)
NT-3 growth factor receptor (Homo sapiens), sequence (Q16288 32-839 limits assumed): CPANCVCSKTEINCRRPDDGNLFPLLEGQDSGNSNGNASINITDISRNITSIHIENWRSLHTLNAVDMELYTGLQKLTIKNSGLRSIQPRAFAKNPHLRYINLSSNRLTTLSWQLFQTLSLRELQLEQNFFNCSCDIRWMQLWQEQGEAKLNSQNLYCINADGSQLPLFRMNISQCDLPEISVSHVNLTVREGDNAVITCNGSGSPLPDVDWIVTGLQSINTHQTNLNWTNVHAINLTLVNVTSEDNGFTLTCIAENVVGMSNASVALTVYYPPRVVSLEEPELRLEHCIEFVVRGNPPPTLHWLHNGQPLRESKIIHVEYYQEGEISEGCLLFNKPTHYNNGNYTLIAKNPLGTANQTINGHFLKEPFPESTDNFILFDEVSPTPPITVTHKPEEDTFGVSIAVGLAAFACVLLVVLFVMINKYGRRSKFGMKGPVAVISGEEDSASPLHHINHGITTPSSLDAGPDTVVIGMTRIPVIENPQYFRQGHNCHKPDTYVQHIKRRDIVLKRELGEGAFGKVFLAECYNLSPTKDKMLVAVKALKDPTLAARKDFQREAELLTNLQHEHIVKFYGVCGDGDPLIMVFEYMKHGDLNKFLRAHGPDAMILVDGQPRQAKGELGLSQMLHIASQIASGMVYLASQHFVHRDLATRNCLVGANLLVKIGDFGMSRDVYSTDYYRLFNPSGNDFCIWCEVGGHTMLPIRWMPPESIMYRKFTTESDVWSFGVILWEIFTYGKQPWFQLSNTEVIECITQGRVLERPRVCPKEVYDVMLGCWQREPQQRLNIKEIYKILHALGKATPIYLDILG

[18] = Tmax in BALB/c mouse at 10 mg/kg, iv; assay type: ADME, organism-based; details: in vivo
[19] = molecular target: T5, Mixed lineage kinase domain-like protein (Homo sapiens) (UniProt Q8NB16); details: HT-29, dose 300.0 nM, time <= 6.0 hrs, TDE = time-dependent effect
T5 sequence (whole entry): T3 sequence (Q8NB16 whole entry)
Description: Inhibition of MLKL phosphorylation in TSZ-induced human HT-29 cells at 300 nM by Western blot analysis

Kd [1]: 3.5 nM
Cmax [2]: 2700 ng/mL
Tmax [3]: 4.8 min
Cmax [4]: 8040 ng/mL
half-life [5]: 49.8 min
inhibition [6]: Active
Vd [7]: 1.24 L/kg
inhibition [8]: Active
IC50 [9]: 59.8 nM
half-life [10]: 62.4 min
Kd [11]: > 30000 nM
Kd [12]: 1700 nM
bioavailability [13]: 59.5%
inhibition [14]: Active
inhibition [15]: Active
inhibition [16]: Dose-Dependent Effect
inhibition [17]: Active
Tmax [18]: 4.8 min
inhibition [19]: Tde
Structure (SMILES): CC1(Cn2cc(-c3ccc4c(c3)CCN4C(=O)Cc3cccc(OC(F)(F)F)c3)c3c(N)n[nH]c(=O)c32)COC1
EC50 (HT-29): 4.58 nM
EC50 (U-937): 3.09 nM
